Assay results taken from patent US20240376094A2, “SELECTIVE BCL-XL PROTAC COMPOUNDS AND METHODS OF USE” (Les Laboratoires Servier, priority 2021, published 2024).
pIC50: −log10 of the molar value.

Experiments:
Type in all cases: cell-based
MOLT-4 cells [1] = assay: MOLT-4 cell viability, MTT assay; details: Homo sapiens, MOLT-4, 48 h
Excerpt: The MTT colorimetric assay is based on the mitochondrial reduction of tetrazolium salt by living cells. The viable cell number is proportional to the production of formazan salts, which can be read spectrophotometrically at 540 nm. The CTG luminescent assay (CellTiter GLO, Promega) is based on a reagent which lyses cells and measures total adenosine triphosphate (ATP) content. The viable cell number is proportional to the production of ATP.
MOLT-4 cells were purchased from ATCC and cultivated in RPMI 1640 supplemented with 10% heat inactivated fetal bovine serum, penicillin (100 IU/mi), streptomycin (100 μg/ml) and L-glutamine (2 mM). Cells were cultured at 37° C. in a humidified atmosphere containing 5% […].
For MTT assay, cells were seeded in 96 microwell plates (150 μL per well) and exposed to the compounds for 48 h (3.16 fold serially diluted; 9 concentrations each, triplicates). At the end of incubation time, 15 μL of MTT solution (5 mg/ml) were added per well and the cells were incubated for another 4 h. Then, 100 μL of 10% Sodium Dodecyl Sulfate (SDS)/HCl 10 mM were added per well and the plate was incubated overnight, before measurement of optical density at 540 nm.
IC50, were calculated using standard four-parametric curve fitting. IC50 is defined as the compound concentration at which the MTT or CTG signal is reduced to 50% of that measured for the control. Results shown in Table 14 represent the mean of at least 2 independent experiments.

MOLT-4 cells [2] = assay: MOLT-4 cell viability, CTG assay; details: Homo sapiens, MOLT-4, 48 h
Method in brief: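 Cells grown in RPMI 1640 with 10% FBS at 37° C, 5% CO2, then exposed to compounds for 48 h (11-point 5-fold dilution, triplicates). ATP measured by CellTiter-Glo luminescence; IC50 from four-parameter fit versus control, mean of ≥2 independent experiments.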

Bcl-xL = molecular target: T1, Bcl-xL (Homo sapiens, UniProt Q07817); assay: HCT116 Bcl-xL degradation, capillary-based immunoassay (WES); details: for remaining activity at 0.01 µM / remaining activity at 0.1 µM: HCT-116, 24 h, % of untreated cells; for remaining activity at 0.01 µM: HCT116, 10 nM; for remaining activity at 0.1 µM: HCT116, 100 nM; for DC50: HCT116, 24 h, 9-point serial dilution
T1 construct: Measured levels of Bcl-xL protein of HCT116 cells treated with the tested compounds; host or cells: HCT116
T1 sequence (Q07817 whole entry): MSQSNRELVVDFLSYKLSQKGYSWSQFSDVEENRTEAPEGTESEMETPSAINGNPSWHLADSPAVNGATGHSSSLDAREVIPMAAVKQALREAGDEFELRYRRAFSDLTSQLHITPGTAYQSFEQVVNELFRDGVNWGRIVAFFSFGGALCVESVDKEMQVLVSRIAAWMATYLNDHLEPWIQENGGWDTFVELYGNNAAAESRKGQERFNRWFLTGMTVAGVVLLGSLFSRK
Method in brief: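 HCT116 cells treated 24 h with compound at 10/100 nM and/or 9-point dilution (quadruplicates), then lysed. Bcl-xL measured by capillary WES immunoassay, normalized to cofilin and expressed as % of untreated cells. DC50 from four-parameter curve fit.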

Row | pIC50 (MOLT-4 cells [1]) | pIC50 (MOLT-4 cells [2]) | remaining activity at 0.01 µM (Bcl-xL) [%] | remaining activity at 0.1 µM (Bcl-xL) [%] | DC50 (Bcl-xL) [nM] | SMILES
1 | 8.18 | 7.46 | 54 | 37 | – | Cc1ncsc1-c1ccc([C@H](C)NC(=O)C2C[C@@H](O)CN2C(=O)C(NC(=O)CCCCCN(C)CCOC23CC4(C)CC(C)(CC(Cn5ncc(-c6ccc(N7CCCc8c7nnc(Nc7nc9ccccc9s7)c8C)nc6C(=O)O)c5C)(C4)C2)C3)C(C)(C)C)cc1 (stereo in doubt) [Example 8, 6-[3-(1,3-benzothiazol-2-ylamino)-4-methyl-6,7-dihydro-5H-pyrido[2,3-c]pyridazin-8-yl]-3-[1-[[3-[2-[[6-[[(1S)-1-[(2S,4R)-4-hydroxy-2-[[(1S)-1-[4-(4-methylthiazol-5-yl)phenyl]ethyl]carbamoyl]pyrrolidine-1-carbonyl]-2,2-dimethyl-propyl]amino]-6-oxo-hexyl]-methyl-amino]ethoxy]-5,7-dimethyl-1-adamantyl]methyl]-5-methyl-pyrazol-4-yl]pyridine-2-carboxylic acid]
2 | 8.28 | 7.89 | 61 | 41 | 10.5 | Cc1c(Nc2nc3ccccc3s2)nnc2c1CCCN2c1ccc(-c2cnn(CC34CC5(C)CC(C)(C3)CC(OCCN(C)CCOCCNc3cccc6c3C(=O)N(C3CCC(=O)NC3=O)C6=O)(C5)C4)c2C)c(C(=O)O)n1 (centres unmarked) [Example 9, 6-[3-(1,3-benzothiazol-2-ylamino)-4-methyl-6,7-dihydro-5H-pyrido[2,3-c]pyridazin-8-yl]-3-[1-[[3-[2-[2-[2-[[2-(2,6-dioxo-3-piperidyl)-1,3-dioxo-isoindolin-4-yl]amino]ethoxy]ethyl-methyl-amino]ethoxy]-5,7-dimethyl-1-adamantyl]methyl]-5-methyl-pyrazol-4-yl]pyridine-2-carboxylic acid]
3 | 8.37 | 7.69 | 83 | 60 | – | Cc1c(Nc2nc3ccccc3s2)nnc2c1CCCN2c1ccc(-c2cnn(CC34CC5(C)CC(C)(C3)CC(OCCN(C)CCOCCOCCOCCNc3cccc6c3C(=O)N(C3CCC(=O)NC3=O)C6=O)(C5)C4)c2C)c(C(=O)O)n1 (centres unmarked) [Example 11, 6-[3-(1,3-benzothiazol-2-ylamino)-4-methyl-6,7-dihydro-5H-pyrido[2,3-c]pyridazin-8-yl]-3-[1-[[3-[2-[2-[2-[2-[2-[[2-(2,6-dioxo-3-piperidyl)-1,3-dioxo-isoindolin-4-yl]amino]ethoxy]ethoxy]ethoxy]ethyl-methyl-amino]ethoxy]-5,7-dimethyl-1-adamantyl]methyl]-5-methyl-pyrazol-4-yl]pyridine-2-carboxylic acid]
4 | 8.02 | 7.70 | 69 | 69 | – | Cc1c(Nc2nc3ccccc3s2)nnc2c1CCCN2c1ccc(-c2cnn(CC34CC5(C)CC(C)(C3)CC(OCCN(C)CCOCCOCCNc3cccc6c3C(=O)N(C3CCC(=O)NC3=O)C6=O)(C5)C4)c2C)c(C(=O)O)n1 (centres unmarked) [Example 12, 6-[3-(1,3-benzothiazol-2-ylamino)-4-methyl-6,7-dihydro-5H-pyrido[2,3-c]pyridazin-8-yl]-3-[1-[[3-[2-[2-[2-[2-[[2-(2,6-dioxo-3-piperidyl)-1,3-dioxo-isoindolin-4-yl]amino]ethoxy]ethoxy]ethyl-methyl-amino]ethoxy]-5,7-dimethyl-1-adamantyl]methyl]-5-methyl-pyrazol-4-yl]pyridine-2-carboxylic acid]
5 | 7.87 | 7.47 | 79 | 57 | – | Cc1c(Nc2nc3ccccc3s2)nnc2c1CCCN2c1ccc(-c2cnn(CC34CC5(C)CC(C)(C3)CC(OCCN(C)CCOCCOCCOCCOCCOCCNc3cccc6c3C(=O)N(C3CCC(=O)NC3=O)C6=O)(C5)C4)c2C)c(C(=O)O)n1 (centres unmarked) [Example 13, 6-[3-(1,3-benzothiazol-2-ylamino)-4-methyl-6,7-dihydro-5H-pyrido[2,3-c]pyridazin-8-yl]-3-[1-[[3-[2-[2-[2-[2-[2-[2-[2-[[2-(2,6-dioxo-3-piperidyl)-1,3-dioxo-isoindolin-4-yl]amino]ethoxy]ethoxy]ethoxy]ethoxy]ethoxy]ethyl-methyl-amino]ethoxy]-5,7-dimethyl-1-adamantyl]methyl]-5-methyl-pyrazol-4-yl]pyridine-2-carboxylic acid]
6 | 8.94 | 8.45 | 81 | 86 | – | Cc1c(Nc2nc3ccccc3s2)nnc2c1CCCN2c1ccc(-c2cnn(CC34CC5(C)CC(C)(C3)CC(OCCN(C)CCCCCCOc3ccc6c(c3)C(=O)N(C3CCC(=O)NC3=O)C6=O)(C5)C4)c2C)c(C(=O)O)n1 (centres unmarked) [Example 14, 6-[3-(1,3-benzothiazol-2-ylamino)-4-methyl-6,7-dihydro-5H-pyrido[2,3-c]pyridazin-8-yl]-3-[1-[[3-[2-[6-[2-(2,6-dioxo-3-piperidyl)-1,3-dioxo-isoindolin-5-yl]oxyhexyl-methyl-amino]ethoxy]-5,7-dimethyl-1-adamantyl]methyl]-5-methyl-pyrazol-4-yl]pyridine-2-carboxylic acid]
7 | 7.94 | 7.63 | 73 | 35 | – | Cc1ncsc1-c1ccc(CNC(=O)[C@@H]2C[C@@H](O)CN2C(=O)[C@@H](NC(=O)CCC(=O)N2CCN(CC#Cc3ccc(OCCCc4sc(N5CCCc6c5nnc(Nc5nc7ccccc7s5)c6C)nc4C(=O)O)c(F)c3)CC2)C(C)(C)C)cc1 [Example 21, 2-[3-(1,3-benzothiazol-2-ylamino)-4-methyl-6,7-dihydro-5H-pyrido[2,3-c]pyridazin-8-yl]-5-[3-[2-fluoro-4-[3-[4-[4-[[(1S)-1-[(2S,4R)-4-hydroxy-2-[[4-(4-methylthiazol-5-yl)phenyl]methylcarbamoyl]pyrrolidine-1-carbonyl]-2,2-dimethyl-propyl]amino]-4-oxo-butanoyl]piperazin-1-yl]prop-1-ynyl]phenoxy]propyl]thiazole-4-carboxylic acid]
8 | 6.06 | 5.79 | 64 | 67 | – | CNCC#Cc1ccc(OCCCc2sc(N(CCCc3cn(CCOCCOCCOCCOCCOCCC(=O)N[C@H](C(=O)N4C[C@H](O)C[C@H]4C(=O)NCc4ccc(-c5scnc5C)cc4)C(C)(C)C)nn3)c3cc(C)c(Nc4nc5ccccc5s4)nn3)nc2C(=O)O)c(F)c1 [Example 29, 2-[[6-(1,3-benzothiazol-2-ylamino)-5-methyl-pyridazin-3-yl]-[3-[1-[2-[2-[2-[2-[2-[3-[[(1S)-1-[(2S,4R)-4-hydroxy-2-[[4-(4-methylthiazol-5-yl)phenyl]methylcarbamoyl]pyrrolidine-1-carbonyl]-2,2-dimethyl-propyl]amino]-3-oxo-propoxy]ethoxy]ethoxy]ethoxy]ethoxy]ethyl]triazol-4-yl]propyl]amino]-5-[3-[2-fluoro-4-[3-(methylamino)prop-1-ynyl]phenoxy]propyl]thiazole-4-carboxylic acid]
9 | 7.71 | – | – | – | 14.5 | Cc1cc(N(CCCCCn2cc(CCCCCCCNc3cccc4c3C(=O)N(C3CCC(=O)NC3=O)C4=O)nn2)c2ccc(-c3cnn(CC45CC6(C)CC(C)(C4)CC(OCCN(C)C)(C6)C5)c3C)c(C(=O)O)n2)nnc1Nc1nc2ccccc2s1 (centres unmarked) [Example 150, 6-[[6-(1,3-benzothiazol-2-ylamino)-5-methyl-pyridazin-3-yl]-[5-[4-[7-[[2-(2,6-dioxo-3-piperidyl)-1,3-dioxo-isoindolin-4-yl]amino]heptyl]triazol-1-yl]pentyl]amino]-3-[1-[[3-[2-(dimethylamino)ethoxy]-5,7-dimethyl-1-adamantyl]methyl]-5-methyl-pyrazol-4-yl]pyridine-2-carboxylic acid]
10 | 7.56 | – | 59 | 40 | – | Cc1cc(N(CCCCCn2cc(COCCOCCOCCOCCNc3cccc4c3C(=O)N(C3CCC(=O)NC3=O)C4=O)nn2)c2ccc(-c3cnn(CC45CC6(C)CC(C)(C4)CC(OCCN(C)C)(C6)C5)c3C)c(C(=O)O)n2)nnc1Nc1nc2ccccc2s1 (centres unmarked) [Example 153, 6-[[6-(1,3-benzothiazol-2-ylamino)-5-methyl-pyridazin-3-yl]-[5-[4-[2-[2-[2-[2-[[2-(2,6-dioxo-3-piperidyl)-1,3-dioxo-isoindolin-4-yl]amino]ethoxy]ethoxy]ethoxy]ethoxymethyl]triazol-1-yl]pentyl]amino]-3-[1-[[3-[2-(dimethylamino)ethoxy]-5,7-dimethyl-1-adamantyl]methyl]-5-methyl-pyrazol-4-yl]pyridine-2-carboxylic acid]
